Data as given in patent US7314858B2, “Retrocyclins: antiviral and antimicrobial peptides” (priority 2001, dated 2008).
Several values for one entry are separate records, joined by “and”; a condition that tells them apart may be missing. Equal entries are not always repeated. Entries after “also recorded” stand apart in the source; their conditions may differ. Where a SMILES comes first, the peptide text is derived from it. Bridges are numbered along the chain shown (N, C = ends). [ ]: non-standard residue; d: D form.

test system: HIV-1 strain JR-CSF; test: HIV-1 JR-CSF infection of CD4+ PBMC, p24 antigen ELISA; format: cell-based; conditions: JR-CSF (R5), peptide 10-20 μg/ml
Procedure: FIG. 5A-C. Anti-HIV-1 activity of retrocyclin. Two strains of HIV-1 and two types of human target cells were used. The IIIB strain is T-cell tropic (X4) and utilizes the CXCR4 co-receptor for entry; the JR-CSF strain is M-tropic (R5) and uses CCR5 for entry. PBMC signifies CD4^+-selected peripheral blood mononuclear cells. […] (A) Two concentrations of retrocyclin (2 μg/ml, 20 μg/ml), 20 μg/ml of the Rhesus circular defensin “RTD-1”, and 20 μg/ml of a horseshoe crab-derived peptide “T140”, reported to only prevent X4 infections, were tested in antiviral assays of against strain IIIB in H9 cells (n=2-6 per peptide; error bars indicate SEM). (B) To confirm our results with primary human cells, similar assays were performed utilizing IIIB virus and CD4^+ PBMC or (C) JR-CSF virus and CD4^+ PBMC. Peptides were not cytotoxic at indicated concentrations, measured by trypan blue exclusion. Average of duplicate experiments are reported for studies with PBMCs. Assay sensitivity=10 pg/ml.
(§1) Either HIV-1-permissive H9 cells were used as targets, or primary CD4^+ lymphocytes from HIV-1-seronegative donors generated from freshly purified peripheral blood mononuclear cells (PBMC) stimulated with a CD3-CD8 bispecific monoclonal antibody. After approximately 7 days, when 98% of these cells co-expressed CD3 and CD4, they were infected with HIV-1 with or without retrocyclin or other test peptide. These cells were maintained in RPMI containing 10% FCS supplemented with 2 mM glutamine, 100 U of penicillin/ml, 10 μg of streptomycin/ml, and 50 U of interleukin 2/ml (R10-50 media).
The p24 assay results shown in FIG. 9 are on a logarithmic scale. A horizontal reference line that passes through 100 on the ordinate scale corresponds to […] of p24 antigen. Results from 3 experiments (each performed with PBMC from a different donor) are shown.

Row | Compound | inhibition of HIV-1 replication (p24)
1 | I2Y-Retrocyclin (cyclo(GYCRCICGRGICRCICGR); disulfide (positions not given here); ring closure inferred; not fully specified (bridges)) [RC-104, cyclic …] | considerable ability to protect cells; also recorded: substantial activity
2 | R9Y-Retrocyclin [RC-107] | lack of efficacy

test system: human red blood cells; test: Hemagglutination of washed red blood cells in PBS; conditions: not given
Procedure: Hemagglutination was tested by adding the stated concentration of peptide to a well comprising red blood cells (shown in FIG. 22). When the RBC are agglutinated, they clump together and settle rapidly and form a diffuse circle covering much of the bottom of the well. In the absence of agglutination, they settle more slowly and form a compact red button in the center of the well.
Sequences of retrocyclin-related peptides that were synthesized and either tested for activity against HIV-1 (see FIGS. 21A and 21B) and/or for their ability to cause human red blood cells to hemagglutinate or both. NT signifies not tested. Linear sequences appear in the table, but all peptides were cyclic and contained three intramolecular disulfide bonds. Hemagglutination of washed human red blood cells was tested in PBS, at peptide concentrations of 50, 25, 12.5 6.25 and 3.12 μg/ml. The lowest concentrations that caused hemagglutination are shown. Peptide concentrations were determined by amino acid analysis or by AUC (area under the curve) RP-HPLC analysis with reference to amino-acid analyzed standards.

Row | Compound | Hemagglutination seen at a concentration of (lowest concentration that caused hemagglutination) [µg/mL]
3 | R→K Retrocyclin-1 (cyclo(GICKCICGKGICKCICGR); disulfide (positions not given here); ring closure inferred; not fully specified (bridges)) [RC119] | 50

same assay, conditions: washed human red blood cells in PBS

Row | Compound | Hemagglutination seen at a concentration of (lowest concentration that caused hemagglutination) | hemagglutination compared with retrocyclin
4 | CC[C@H](C)[C@@H]1NC(=O)CNC(=O)[C@H](CCCNC(=N)N)NC(=O)CNC(=O)[C@@H]2CSSC[C@H](NC1=O)C(=O)N[C@@H](CCCNC(=N)N)C(=O)N[C@H]1CSSC[C@H](NC(=O)[C@H](CCCNC(=N)N)NC(=O)[C@@H]3CSSC[C@H](NC(=O)[C@H]([C@@H](C)CC)NC1=O)C(=O)NCC(=O)N[C@@H](CCCCN)C(=O)N[C@@H](CCCNC(=N)N)C(=O)N[C@@H]([C@@H](C)CC)C(=O)N3)C(=O)N[C@@H]([C@@H](C)CC)C(=O)N2 [RC123A, Retrocyclin 2A] (cyclo(CGKRICRCICGRGICRCI); disulfide 1-6, 8-17, 10-15) | 50 µg/mL | less hemagglutination than retrocyclin-1 or retrocyclin-2
5 | CC[C@H](C)[C@@H]1NC(=O)CNC(=O)[C@H](CCCNC(=N)N)NC(=O)CNC(=O)[C@@H]2CSSC[C@H](NC1=O)C(=O)N[C@@H](CCCNC(=N)N)C(=O)N[C@H]1CSSC[C@H](NC(=O)[C@H](CCCNC(=N)N)NC(=O)[C@@H]3CSSC[C@H](NC(=O)[C@H]([C@@H](C)CC)NC1=O)C(=O)NCC(=O)N[C@@H](CCCCN)C(=O)N[C@@H](CCCCN)C(=O)N[C@@H]([C@@H](C)CC)C(=O)N3)C(=O)N[C@@H]([C@@H](C)CC)C(=O)N2 [RC123B, Retrocyclin 2B] (cyclo(CGKKICRCICGRGICRCI); disulfide 1-6, 8-17, 10-15) | 6.25 µg/mL | 
6 | CC[C@H](C)[C@@H]1NC(=O)CNC(=O)[C@H](CCCNC(=N)N)NC(=O)CNC(=O)[C@@H]2CSSC[C@H](NC1=O)C(=O)N[C@@H](CCCNC(=N)N)C(=O)N[C@H]1CSSC[C@H](NC(=O)[C@H](CCCNC(=N)N)NC(=O)[C@@H]3CSSC[C@H](NC(=O)[C@H]([C@@H](C)CC)NC1=O)C(=O)NCC(=O)N[C@@H](CCCNC(=N)N)C(=O)N[C@@H](CCCCN)C(=O)N[C@@H]([C@@H](C)CC)C(=O)N3)C(=O)N[C@@H]([C@@H](C)CC)C(=O)N2 [RC123C, Retrocyclin 2C] (cyclo(CGRGICRCICGRKICRCI); disulfide 1-6, 8-17, 10-15) | 50 µg/mL | less hemagglutination than retrocyclin-1 or retrocyclin-2
7 | CC[C@H](C)[C@@H]1NC(=O)CNC(=O)[C@H](CCCNC(=N)N)NC(=O)CNC(=O)[C@@H]2CSSC[C@H](NC1=O)C(=O)N[C@@H](CCCNC(=N)N)C(=O)N[C@H]1CSSC[C@H](NC(=O)[C@H](CCCCN)NC(=O)[C@@H]3CSSC[C@H](NC(=O)[C@H]([C@@H](C)CC)NC1=O)C(=O)NCC(=O)N[C@@H](CCCNC(=N)N)C(=O)N[C@@H](CCCNC(=N)N)C(=O)N[C@@H]([C@@H](C)CC)C(=O)N3)C(=O)N[C@@H]([C@@H](C)CC)C(=O)N2 [RC123D, Retrocyclin 2D] (cyclo(CGRGICRCICGRRICKCI); disulfide 1-6, 8-17, 10-15) | 50 µg/mL | 
8 | CC[C@H](C)[C@@H]1NC(=O)CNC(=O)[C@H](CCCNC(=N)N)NC(=O)CNC(=O)[C@@H]2CSSC[C@H](NC1=O)C(=O)N[C@@H](CCCCN)C(=O)N[C@H]1CSSC[C@H](NC(=O)[C@H](CCCNC(=N)N)NC(=O)[C@@H]3CSSC[C@H](NC(=O)[C@H]([C@@H](C)CC)NC1=O)C(=O)NCC(=O)N[C@@H](CCCNC(=N)N)C(=O)N[C@@H](CCCNC(=N)N)C(=O)N[C@@H]([C@@H](C)CC)C(=O)N3)C(=O)N[C@@H]([C@@H](C)CC)C(=O)N2 [RC123E, Retrocyclin 2E] (cyclo(CGRGICKCICGRRICRCI); disulfide 1-6, 8-17, 10-15) | 25 µg/mL | 
9 | CC[C@@H](C)[C@H]1NC(=O)CNC(=O)[C@@H](CCCNC(=N)N)NC(=O)CNC(=O)[C@H]2CSSC[C@@H](NC1=O)C(=O)N[C@H](CCCNC(=N)N)C(=O)N[C@@H]1CSSC[C@@H](NC(=O)[C@@H](CCCNC(=N)N)NC(=O)[C@H]3CSSC[C@@H](NC(=O)[C@@H]([C@H](C)CC)NC1=O)C(=O)NCC(=O)N[C@H](CCCNC(=N)N)C(=O)NCC(=O)N[C@H]([C@H](C)CC)C(=O)N3)C(=O)N[C@H]([C@H](C)CC)C(=O)N2 [RC-112, enantio-retrocyclin] (cyclo(G[dI][dC][dR][dC][dI][dC]G[dR]G[dI][dC][dR][dC][dI][dC]G[dR]); disulfide 3-16, 5-14, 7-12) | 50 µg/mL | less hemagglutination than retrocyclin-1 or retrocyclin-2
10 | CC[C@@H](C)[C@H]1NC(=O)CNC(=O)[C@@H](CCCCN)NC(=O)CNC(=O)[C@H]2CSSC[C@@H](NC1=O)C(=O)N[C@H](CCCNC(=N)N)C(=O)N[C@@H]1CSSC[C@@H](NC(=O)[C@@H](CCCNC(=N)N)NC(=O)[C@H]3CSSC[C@@H](NC(=O)[C@@H]([C@H](C)CC)NC1=O)C(=O)NCC(=O)N[C@H](CCCNC(=N)N)C(=O)NCC(=O)N[C@H]([C@H](C)CC)C(=O)N3)C(=O)N[C@H]([C@H](C)CC)C(=O)N2 [RC-113, enantio-RC-101] | 50 µg/mL | less hemagglutination than retrocyclin-1 or retrocyclin-2
11 | CC[C@H](C)[C@@H]1NC(=O)CNC(=O)[C@H](CCCCN)NC(=O)CNC(=O)[C@@H]2CSSC[C@H](NC1=O)C(=O)N[C@@H](CCCNC(=N)N)C(=O)N[C@H]1CSSC[C@H](NC(=O)[C@H](CCCNC(=N)N)NC(=O)[C@@H]3CSSC[C@H](NC(=O)[C@H](Cc4ccc(O)cc4)NC1=O)C(=O)NCC(=O)N[C@@H](CCCNC(=N)N)C(=O)NCC(=O)N[C@@H]([C@@H](C)CC)C(=O)N3)C(=O)N[C@@H]([C@@H](C)CC)C(=O)N2 [RC-114, RC-101/103 hybrid] (cyclo(CGKGICRCYCGRGICRCI); disulfide 1-6, 8-17, 10-15) | 200 µg/mL and > 150 µg/mL | much less hemagglutination than retrocyclin

test system: HIV-1 strain IIIB; test: HIV-1 IIIB infection of CD4+ PBMC, p24 antigen ELISA; format: cell-based; conditions: CD4+ PBMC, IIIB (X4), peptide 10-20 μg/ml
Procedure: FIG. 5A-C. Anti-HIV-1 activity of retrocyclin. Two strains of HIV-1 and two types of human target cells were used. The IIIB strain is T-cell tropic (X4) and utilizes the CXCR4 co-receptor for entry; the JR-CSF strain is M-tropic (R5) and uses CCR5 for entry. PBMC signifies CD4^+-selected peripheral blood mononuclear cells. […] (A) Two concentrations of retrocyclin (2 μg/ml, 20 μg/ml), 20 μg/ml of the Rhesus circular defensin “RTD-1”, and 20 μg/ml of a horseshoe crab-derived peptide “T140”, reported to only prevent X4 infections, were tested in antiviral assays of against strain IIIB in H9 cells (n=2-6 per peptide; error bars indicate SEM). (B) To confirm our results with primary human cells, similar assays were performed utilizing IIIB virus and CD4^+ PBMC or (C) JR-CSF virus and CD4^+ PBMC. […] Average of duplicate experiments are reported for studies with PBMCs. Assay sensitivity=10 pg/ml.
as §1, with “After approximately 7 days, when 98% of these cells co-expressed CD3 and CD4, they were infected with HIV-1 with or without retrocyclin or other test peptide.” left out
Examining the effect of adding retrocyclin at various times pre- and post-HIV-1 infection. […] Primary CD4^+ PBMC were incubated with HIV-IIIB (FIG. 6) or HIV-JR-CSF for 3 hours in the presence or absence of 20 μg/ml retrocyclin. The cells were subsequently washed in media, and incubated an additional 9 days. Retrocyclin (20 μg/ml) was added back to some of the cultures at time points specified in FIG. 6 and infection was monitored by p24 ELISA as previously described. […]

Row | Compound | inhibition of HIV-1 replication (p24)
12 | I2Y-Retrocyclin (cyclo(GYCRCICGRGICRCICGR); disulfide (positions not given here); ring closure inferred; not fully specified (bridges)) [RC-104, cyclic …] | relatively ineffective
13 | I11Y-Retrocyclin (cyclo(GICRCICGRGYCRCICGR); disulfide (positions not given here); ring closure inferred; not fully specified (bridges)) [RC-105] | either inactive or only modestly active
14 | R9Y-Retrocyclin [RC-107] | lack of efficacy
